Reference: US20200181117A1, “SUBSTITUTED 3-HETEROARYLOXY-1H-PYRAZOLES AND SALTS THEREOF AND THEIR USE AS HERBICIDAL ACTIVE SUBSTANCES” (BAYER CROPSCIENCE AKTIENGESELLSCHAFT, priority 2017, published 2020)

Tests used:
Format in all cases: in vivo
Abutilon theophrasti [1] = assay: Post-emergence herbicidal action; settings: 1280 g/ha, rated visually after about 3 weeks vs untreated controls
Summary of the method: (§1)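 Greenhouse post-emergence spray at one-leaf stage, 1280 g/ha, 600 l/ha water with 0.5% additive; efficacy rated visually after roughly 3 weeks, 0% meaning like controls and 100% meaning dead plants.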

Alopecurus myosuroides [2] = assay: Post-emergence herbicidal action; settings: 1280 g/ha, rated visually after about 3 weeks vs untreated controls
Summary of the method: as §1

Amaranthus retroflexus [3] = assay: Post-emergence herbicidal action; settings: 1280 g/ha, rated visually after about 3 weeks vs untreated controls
Summary of the method: as §1

Echinochloa crus-galli [4] = assay: Post-emergence herbicidal action; settings: 1280 g/ha, rated visually after about 3 weeks vs untreated controls
Summary of the method: as §1

Pharbitis purpurea [5] = assay: Post-emergence herbicidal action; settings: 1280 g/ha, rated visually after about 3 weeks vs untreated controls
Summary of the method: as §1

Setaria viridis [6] = assay: Post-emergence herbicidal action; settings: 1280 g/ha, rated visually after about 3 weeks vs untreated controls
Summary of the method: as §1

Viola tricolor [7] = assay: Post-emergence herbicidal action; settings: 1280 g/ha, rated visually after about 3 weeks vs untreated controls
Summary of the method: as §1

Abutilon theophrasti [8] = assay: Pre-emergence herbicidal action; settings: 1280 g/ha, scored visually after about 3 weeks vs untreated controls
Summary of the method: (§2)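 Visual percentage damage relative to untreated controls, scored about 3 weeks after treatment (100% = plants died, 0% = like controls). Compounds were applied at 1280 g/ha to the covering soil over sown seeds as aqueous suspension or emulsion containing 0.5% additive.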

Alopecurus myosuroides [9] = assay: Pre-emergence herbicidal action; settings: 1280 g/ha, scored visually after about 3 weeks vs untreated controls
Summary of the method: as §2

Amaranthus retroflexus [10] = assay: Pre-emergence herbicidal action; settings: 1280 g/ha, scored visually after about 3 weeks vs untreated controls
Summary of the method: as §2

Avena fatua = assay: Pre-emergence herbicidal action; settings: 1280 g/ha, scored visually after about 3 weeks vs untreated controls
Summary of the method: as §2

Echinochloa crus-galli [11] = assay: Pre-emergence herbicidal action; settings: 1280 g/ha, scored visually after about 3 weeks vs untreated controls
Summary of the method: as §2

Hordeum murinum = assay: Pre-emergence herbicidal action; settings: 1280 g/ha, scored visually after about 3 weeks vs untreated controls
Summary of the method: as §2

Matricaria inodora = assay: Pre-emergence herbicidal action; settings: 1280 g/ha, scored visually after about 3 weeks vs untreated controls
Summary of the method: as §2

Pharbitis purpurea [12] = assay: Pre-emergence herbicidal action; settings: 1280 g/ha, scored visually after about 3 weeks vs untreated controls
Summary of the method: as §2

Polygonum convolvulus [13] = assay: Pre-emergence herbicidal action; settings: 1280 g/ha, scored visually after about 3 weeks vs untreated controls
Summary of the method: as §2

Setaria viridis [14] = assay: Pre-emergence herbicidal action; settings: 1280 g/ha, scored visually after about 3 weeks vs untreated controls
Summary of the method: as §2

Stellaria media [15] = assay: Pre-emergence herbicidal action; settings: 1280 g/ha, scored visually after about 3 weeks vs untreated controls
Summary of the method: as §2

Veronica persica = assay: Pre-emergence herbicidal action; settings: 1280 g/ha, scored visually after about 3 weeks vs untreated controls
Summary of the method: as §2

Viola tricolor [16] = assay: Pre-emergence herbicidal action; settings: 1280 g/ha, scored visually after about 3 weeks vs untreated controls
Summary of the method: as §2

Polygonum convolvulus [17] = assay: Post-emergence herbicidal action; settings: 1280 g/ha, rated visually after about 3 weeks vs untreated controls
Summary of the method: as §1

Stellaria media [18] = assay: Post-emergence herbicidal action; settings: 1280 g/ha, rated visually after about 3 weeks vs untreated controls
Summary of the method: as §1

Lolium rigidum [19] = assay: Pre-emergence herbicidal action; settings: 1280 g/ha, scored visually after about 3 weeks vs untreated controls
Summary of the method: as §2

Ipomoea purpurea = assay: Post-emergence herbicidal action; settings: 1280 g/ha, rated visually after about 3 weeks vs untreated controls
Summary of the method: as §1

Lolium rigidum [20] = assay: Post-emergence herbicidal action; settings: 1280 g/ha, rated visually after about 3 weeks vs untreated controls
Summary of the method: as §1

Compound | herbicidal activity on Abutilon theophrasti (Abutilon theophrasti [1]) [%] | herbicidal activity on Alopecurus myosuroides (Alopecurus myosuroides [2]) [%] | herbicidal activity on Amaranthus retroflexus (Amaranthus retroflexus [3]) [%] | herbicidal activity on Echinochloa crus-galli (Echinochloa crus-galli [4]) [%] | herbicidal activity on Pharbitis purpurea (Pharbitis purpurea [5]) [%] | herbicidal activity on Viola tricolor (Viola tricolor [7]) [%] | herbicidal activity on Abutilon theophrasti (Abutilon theophrasti [8]) [%] | herbicidal activity on Alopecurus myosuroides (Alopecurus myosuroides [9]) [%] | herbicidal activity on Amaranthus retroflexus (Amaranthus retroflexus [10]) [%] | herbicidal activity on Avena fatua (Avena fatua) [%] | herbicidal activity on Echinochloa crus-galli (Echinochloa crus-galli [11]) [%] | herbicidal activity on Hordeum murinum (Hordeum murinum) [%] | herbicidal activity on Matricaria inodora (Matricaria inodora) [%] | herbicidal activity on Polygonum convolvulus (Polygonum convolvulus [13]) [%] | herbicidal activity on Setaria viridis (Setaria viridis [14]) [%] | herbicidal activity on Stellaria media (Stellaria media [15]) [%] | herbicidal activity on Veronica persica (Veronica persica) [%] | herbicidal activity on Viola tricolor (Viola tricolor [16]) [%] | herbicidal activity on Lolium rigidum (Lolium rigidum [19]) [%] | herbicidal activity on Ipomoea purpurea (Ipomoea purpurea) [%] | further results
Fc1ccc(Sc2c(Oc3ncccn3)nn3c2CCC3)cc1 [Example I-097] | 90 | 90 | 80 | 100 | 90 | 80 | 100 | 100 | 90 | 80 | 100 | 90 | 100 | 100 | 100 | 100 | 90 | 100 |  |  | herbicidal activity on Setaria viridis (Setaria viridis [6]): 90%; herbicidal activity on Pharbitis purpurea (Pharbitis purpurea [12]): 90%
CCc1c(Sc2ccc(F)cc2F)c(Oc2ncc(F)cn2)nn1C [Example I-094] | 90 |  | 100 | 80 | 100 | 100 | 100 | 100 | 100 |  | 100 | 100 | 100 | 90 | 100 | 100 | 100 | 100 | 80 |  | herbicidal activity on Polygonum convolvulus (Polygonum convolvulus [17]): 90%; herbicidal activity on Stellaria media (Stellaria media [18]): 100%; herbicidal activity on Pharbitis purpurea (Pharbitis purpurea [12]): 100%
CCc1c(Sc2ccc(F)cc2)c(Oc2ncc(OC)cn2)nn1C [Example I-186] |  |  | 100 |  | 80 | 100 |  |  | 100 |  |  |  | 90 | 80 | 100 | 100 |  | 100 |  | 80 | 
COc1cnc(Oc2nn(C)c(C)c2Sc2ccc(Cl)cc2)nc1 [Example I-066] |  |  | 80 | 80 | 80 | 100 | 90 | 80 | 100 |  | 100 | 100 | 100 | 90 | 100 | 100 | 100 | 100 |  | 80 | 
CCc1c(Sc2ccc(F)c(F)c2)c(Oc2ncccn2)nn1C [Example I-062] | 100 | 80 | 100 |  |  | 100 | 100 | 100 | 100 | 80 | 100 | 100 | 100 | 100 | 100 | 100 |  | 100 | 80 |  | herbicidal activity on Polygonum convolvulus (Polygonum convolvulus [17]): 90%; herbicidal activity on Stellaria media (Stellaria media [18]): 90%; herbicidal activity on Pharbitis purpurea (Pharbitis purpurea [12]): 80%
Cc1c(Sc2ccc(F)cc2Cl)c(Oc2ncccn2)nn1C [Example I-135] |  |  | 100 |  | 80 | 100 | 100 | 100 | 100 | 80 | 100 | 80 | 90 | 90 | 100 | 100 | 100 | 100 | 90 | 80 | herbicidal activity on Stellaria media (Stellaria media [18]): 90%
COc1cnc(Oc2nn(C)c(C)c2Sc2ccc(F)c(F)c2)nc1 [Example I-157] | 90 | 100 | 100 | 100 |  | 100 | 100 | 100 | 100 | 100 | 100 | 100 | 100 | 100 | 100 | 100 | 100 | 100 | 100 |  | herbicidal activity on Lolium rigidum (Lolium rigidum [20]): 80%; herbicidal activity on Polygonum convolvulus (Polygonum convolvulus [17]): 80%; herbicidal activity on Setaria viridis (Setaria viridis [6]): 80%
CCc1c(Sc2ccc(F)cc2F)c(Oc2ncc(OC)cn2)nn1C [Example I-207] |  |  | 90 |  | 90 | 80 | 80 |  | 100 |  |  |  |  | 80 | 100 | 100 | 100 | 100 |  | 90 | 
